From patent US20220000734A1, “COMPOSITION AND METHOD OF STRENGTHENING SKIN BARRIER” (AMOREPACIFIC CORPORATION, priority 2018, published 2022)

Columns and labels:
Format in all cases: cell-based, human
[1] = tested on: DSC1; test: DSC1 gene expression in UVB-irradiated NHEK (Taqman real-time PCR); details: UVB 25 mJ/cm^2, 10 nM compound, fourth day of culture, FIG. 3
Description: (§1) Normal human epidermal keratinocytes (NHEK) were cultured in a 6-well plate incubator. 24 hours later, the normal human epidermal keratinocytes (NHEK) were cultured by replacing it with phosphate-buffered saline (PBS) and irradiating it with UVB (25 mJ/cm^2) and adding 10 nM of a compound represented by Chemical Formula 1-1 (Cayman Chemical) to the NHEK culture medium. On the fourth day of the culture, cells were harvested to separate RNA and synthesize cDNA through RT-PCR (a reverse transcriptional polymerase chain reaction), and the synthesized cDNA was used to perform Taqman real-time PCR and measure gene expression levels of a keratinocyte differentiation markers, KRT1 and KRT10, and a desmosome constituent factor, DSC1, and the results are shown in FIGS. 1 to 3.

[2] = tested on: KRT10 (keratin 10); test: KRT10 gene expression in UVB-irradiated NHEK (Taqman real-time PCR); details: UVB 25 mJ/cm^2, 10 nM compound, fourth day of culture, FIG. 2
Description: as §1

[3] = tested on: KRT1 (keratin 1); test: KRT1 gene expression in UVB-irradiated NHEK (Taqman real-time PCR); details: UVB 25 mJ/cm^2, 10 nM compound, fourth day of culture, FIG. 1
Description: as §1

CC/C=C/C/C=C\C[C@H](O)\C=C/C=C/C=C/[C@H](O)C/C=C\CCC(=O)O [Chemical Formula 1-1]
increased again: gene expression level of DSC1 [1] | gene expression level of KRT10 (keratin 10) [2] | gene expression level of KRT1 (keratin 1) [3]
